# Earlier results as cited in patent US9901523B2, “Oral care products comprising zinc oxide and trimethylglycine” (Colgate-Palmolive Company, priority 2012, dated 2018).
# Conditions: water at 30° C.
smiles,measurement,value
[O]=[Zn] [Zinc oxide],solubility of zinc oxide,about 0.16 mg per 100 ml of water
